Measurements from patent publication US20250250303A1 (THE TRUSTEES OF COLUMBIA UNIVERSITY IN THE CITY OF NEW YORK, priority 2022, published 2025).
Bridge positions count the residues as written; N and C are the ends. Peptide text beside a SMILES is read from it.

Columns and labels:
IR K484E/L552A = molecular target: T1, IR K484E/L552A (Homo sapiens, UniProt P06213, K511E/L579A); experiment: IR activation assay in 293 FT cells, IR K484E/L552A double mutant; format: cell-based; conditions: 10 nM for 10 min
T1 construct: expressed in transfected cells; host or cells: 293 FT cells
T1 sequence (P06213 28-1370 isoform P06213-2 K511E/L579A limits assumed): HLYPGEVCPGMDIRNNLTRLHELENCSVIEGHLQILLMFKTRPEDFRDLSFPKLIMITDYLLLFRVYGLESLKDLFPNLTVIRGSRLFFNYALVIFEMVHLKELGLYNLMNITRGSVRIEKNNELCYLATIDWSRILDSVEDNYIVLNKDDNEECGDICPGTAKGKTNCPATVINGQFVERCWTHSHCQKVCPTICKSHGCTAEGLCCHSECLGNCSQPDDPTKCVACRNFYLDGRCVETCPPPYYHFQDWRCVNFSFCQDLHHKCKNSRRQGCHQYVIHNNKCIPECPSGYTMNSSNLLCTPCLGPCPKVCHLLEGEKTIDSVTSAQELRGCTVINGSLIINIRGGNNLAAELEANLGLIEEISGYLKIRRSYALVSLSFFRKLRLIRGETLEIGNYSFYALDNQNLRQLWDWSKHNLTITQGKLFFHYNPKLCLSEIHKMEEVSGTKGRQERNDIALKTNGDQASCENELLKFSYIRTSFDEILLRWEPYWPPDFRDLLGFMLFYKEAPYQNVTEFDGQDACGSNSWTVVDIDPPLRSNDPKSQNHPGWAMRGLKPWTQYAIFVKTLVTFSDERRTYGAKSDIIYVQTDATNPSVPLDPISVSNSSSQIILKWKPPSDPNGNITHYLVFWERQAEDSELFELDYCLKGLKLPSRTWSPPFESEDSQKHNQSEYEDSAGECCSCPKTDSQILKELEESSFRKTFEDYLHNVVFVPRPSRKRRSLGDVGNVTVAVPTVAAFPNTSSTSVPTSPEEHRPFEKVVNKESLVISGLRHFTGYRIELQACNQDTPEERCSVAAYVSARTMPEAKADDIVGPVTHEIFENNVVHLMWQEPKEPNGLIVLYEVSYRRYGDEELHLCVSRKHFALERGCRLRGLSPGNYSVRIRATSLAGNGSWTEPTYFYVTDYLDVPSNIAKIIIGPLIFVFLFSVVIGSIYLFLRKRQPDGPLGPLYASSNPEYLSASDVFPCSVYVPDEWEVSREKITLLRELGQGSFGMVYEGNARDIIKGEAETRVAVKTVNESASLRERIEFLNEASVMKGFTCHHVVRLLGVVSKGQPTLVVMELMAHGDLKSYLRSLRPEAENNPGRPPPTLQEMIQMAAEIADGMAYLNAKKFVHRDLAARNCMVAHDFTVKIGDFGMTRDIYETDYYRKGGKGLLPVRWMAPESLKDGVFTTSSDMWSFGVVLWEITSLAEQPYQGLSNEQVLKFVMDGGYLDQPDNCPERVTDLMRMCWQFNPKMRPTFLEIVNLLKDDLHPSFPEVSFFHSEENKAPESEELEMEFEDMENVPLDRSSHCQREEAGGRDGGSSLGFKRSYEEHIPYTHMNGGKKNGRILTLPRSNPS
T1 sequence (P06213 763-1382 partner limits assumed): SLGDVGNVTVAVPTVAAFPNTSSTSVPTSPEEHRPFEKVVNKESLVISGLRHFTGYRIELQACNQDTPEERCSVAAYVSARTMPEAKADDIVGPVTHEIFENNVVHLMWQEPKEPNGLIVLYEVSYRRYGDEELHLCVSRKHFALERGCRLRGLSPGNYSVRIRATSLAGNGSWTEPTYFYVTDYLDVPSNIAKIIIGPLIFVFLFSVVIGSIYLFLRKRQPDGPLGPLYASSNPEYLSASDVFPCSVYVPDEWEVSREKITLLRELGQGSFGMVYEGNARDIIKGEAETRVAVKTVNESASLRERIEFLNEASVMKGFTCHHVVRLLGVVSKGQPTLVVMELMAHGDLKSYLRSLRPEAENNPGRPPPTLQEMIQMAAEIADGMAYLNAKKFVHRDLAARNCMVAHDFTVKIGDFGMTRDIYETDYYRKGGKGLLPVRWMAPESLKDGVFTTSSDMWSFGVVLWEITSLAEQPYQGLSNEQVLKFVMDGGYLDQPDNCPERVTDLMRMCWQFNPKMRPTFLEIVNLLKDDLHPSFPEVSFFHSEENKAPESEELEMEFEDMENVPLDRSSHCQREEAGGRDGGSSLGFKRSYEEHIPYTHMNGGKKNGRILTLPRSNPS

IR R14W = molecular target: T2, IR R14W (Homo sapiens, UniProt P06213, R41W); experiment: IR activation assay in 293 FT cells, IR R14W mutant; format: cell-based; conditions: 10 min
T2 construct: expressed in transfected cells; host or cells: 293 FT cells
T2 sequence (P06213 28-1370 isoform P06213-2 R41W limits assumed): as the sequence (P06213 28-1370 isoform P06213-2 K511E/L579A limits assumed) above, with R14W, E484K, A552L counted along it
T2 sequence (P06213 763-1382 partner limits assumed): as the sequence (P06213 763-1382 partner limits assumed) above

IR D496K = molecular target: T3, IR D496K (Homo sapiens, UniProt P06213, D523K); experiment: IR activation assay in 293 FT cells, IR D496K mutant; format: cell-based; conditions: 10 min
T3 construct: expressed in transfected cells; host or cells: 293 FT cells
T3 sequence (P06213 28-1370 isoform P06213-2 D523K limits assumed): as the sequence (P06213 28-1370 isoform P06213-2 K511E/L579A limits assumed) above, with E484K, D496K, A552L counted along it
T3 sequence (P06213 763-1382 partner limits assumed): as the sequence (P06213 763-1382 partner limits assumed) above

IR R345A = molecular target: T4, IR R345A (Homo sapiens, UniProt P06213, R372A); experiment: IR activation assay in 293 FT cells, IR R345A mutant; format: cell-based; conditions: 10 nM for 10 min
T4 construct: expressed in transfected cells; host or cells: 293 FT cells
T4 sequence (P06213 28-1370 isoform P06213-2 R372A limits assumed): as the sequence (P06213 28-1370 isoform P06213-2 K511E/L579A limits assumed) above, with R345A, E484K, A552L counted along it
T4 sequence (P06213 763-1382 partner limits assumed): as the sequence (P06213 763-1382 partner limits assumed) above

IR signaling = IR signaling in primary mouse hepatocytes; format: cell-based
Experimental: Primary hepatocytes were isolated from 2-month-old male mice with a standard two-step collagenase perfusion procedure as described earlier with some modifications. […] After 1-2 sec upon appearance of white spots in the liver, the portal vein was cut with scissors to wash out blood, and then the liver was perfused with 30 ml of Liver Digest Medium (Thermo Scientific, Cat. #17703034). Dissected liver was gently washed with low glucose DMEM and transferred to sterile culture dish containing 15 ml Liver Digest Medium. The isolated liver cells were filtered through the 70 μm cell strainer into a 50 ml tube. After centrifuge at 50 g for 5 min at 4° C., cells were washed with cold low glucose DMEM three times. […] After 2 hr., the medium was changed to serum free low-glucose DMEM.
The cells were incubated with the lysis buffer B [50 mM Hepes pH 7.4, 150 mM NaCl, 10% Glycerol, 1% Triton X-100, 1 mM EDTA, 100 mM sodium fluoride, 2 mM sodium orthovanadate, 20 mM sodium pyrophosphate, 0.5 mM dithiothreitol (DTT), 2 mM phenylmethylsulfonyl fluoride (PMSF)] supplemented with complete Protease Inhibitor Cocktail (Roche), PhosSTOP (Sigma), and 25 U/ml turbo nuclease (Accelagen) on ice for 1 hr. After centrifuge at 20,817 g at 4° C. for 10 min, the concentrations of cell lysate were measured using Micro BCA Protein Assay Kit (Thermo Scientific). About 50-60 μg total proteins were analyzed by SDS-PAGE and quantitative Western blotting. The following antibodies were purchased from commercial sources: Anti-IR-pY1150/1151 (WB, 1:1000; 19H6; labeled as pY IR, Cat. #3024), anti-AKT (WB, 1:1000; 40D4, Cat. #2920), anti-pS473 AKT (WB, 1:1000; D9E, Cat. #4060), anti-ERK1/2 (WB, 1:1000; L34F12, Cat. #4696), anti-pERK1/2 (WB, […]; 197G2, Cat. #4377), anti-IRS1-pS616 (WB, 1:1000; C15H5, Cell Signaling, Cat. #3203); anti-IRS1 (WB, 1:1000; A301-158A, Bethyl Laboratory); anti-IR (WB, 1:500, CT-3, Santa Cruz; labeled as IR for primary hepatocytes and MEFs, Cat. #sc-57342); anti-IR (WB, 1:1000; EPR23566-103; labeled as IR for FIG. 31, ab278100, Abcam); anti-Myc (WB, 1:2000; 9E10, Cat. #11667149001, Roche; labeled as IR for 293 FT cells). For quantitative western blots, anti-rabbit immunoglobulin G (IgG) (H+L) (WB, 1:5000; Dylight 800 conjugates, Cat. #5151) and anti-mouse IgG (H+L) (WB, 1:5000; Dylight 680 conjugates, Cat. #5470) (Cell Signaling) were used as secondary antibodies. The membranes were scanned with the Odyssey Infrared Imaging System (Li—COR, Lincoln, NE).

Insulin tolerance test = format: in vivo, mice; conditions: intraperitoneal
Experimental: Insulin tolerance tests were performed as described previously with some modification. Briefly, 2-3 months old male mice were fasted for 2 hr. and their blood glucose levels (T=0) were measured with tail bleeding using a glucometer (AlphaTRAK). After then, mice were injected intraperitoneally with Humulin (6 nmol/kg body weight), S597 (9 nmol/kg), S597-S20D (9 nmol/kg), S597-W6A (9 nmol/kg), S597-F27A (9 nmol/kg), or S597-N20 (27 nmol/kg), and their blood glucose levels were measured at the indicated time points after injection.

full-length IGF1R = experiment: In vitro competition assay for full-length IGF1R; format: binding
[1] = Chronic treatment by osmotic minipump; format: in vivo, mice
Description: 2-month-old male mice were implanted with osmotic minipump releasing Humulin (0.2 U/day), S597 (0.3 U/day), or S597-S20D (0.3 U/day). […] Hepes, N=7; Humulin, N=8; S597, N=7; S597-S20D, N=4. […] Hepes, N=7; Humulin, N=8; S597, N=9; S597-S20D, N=4. Two-way ANOVA followed by Tukey's multiple comparisons test. […] Mean±SEM. Hepes, N=8; Humulin, N=7; S597, N=9; S597-S20D, N=5. […] Hepes, N=4; Humulin and S597 analogs, N=5. two-tailed Student's t-test. All graphs show Mean±SEM.
To examine the long-term effects of S597 in vivo, C57BL/6J WT mice were implanted with osmotic minipumps releasing either HEPES, Humulin, or mimetics. […] Consistent with previous work, chronic treatment of Humulin increased body weight (FIGS. 11E, 11F).

T47D = experiment: IR signaling in cancer cells, T47D; format: cell-based; conditions: 10, 100 or 300 nM for 10 minutes
CAL33 = experiment: IR signaling in cancer cells, CAL33; format: cell-based; conditions: 10, 100 or 300 nM for 10 minutes
[2] = molecular target: insulin-like growth factor 1 receptor (IGF1R) (Homo sapiens, UniProt P08069); conditions: previous studies; cited from earlier work
insulin-like growth factor 1 receptor (IGF1R), sequence (P08069 31-736 limits assumed, species assumed): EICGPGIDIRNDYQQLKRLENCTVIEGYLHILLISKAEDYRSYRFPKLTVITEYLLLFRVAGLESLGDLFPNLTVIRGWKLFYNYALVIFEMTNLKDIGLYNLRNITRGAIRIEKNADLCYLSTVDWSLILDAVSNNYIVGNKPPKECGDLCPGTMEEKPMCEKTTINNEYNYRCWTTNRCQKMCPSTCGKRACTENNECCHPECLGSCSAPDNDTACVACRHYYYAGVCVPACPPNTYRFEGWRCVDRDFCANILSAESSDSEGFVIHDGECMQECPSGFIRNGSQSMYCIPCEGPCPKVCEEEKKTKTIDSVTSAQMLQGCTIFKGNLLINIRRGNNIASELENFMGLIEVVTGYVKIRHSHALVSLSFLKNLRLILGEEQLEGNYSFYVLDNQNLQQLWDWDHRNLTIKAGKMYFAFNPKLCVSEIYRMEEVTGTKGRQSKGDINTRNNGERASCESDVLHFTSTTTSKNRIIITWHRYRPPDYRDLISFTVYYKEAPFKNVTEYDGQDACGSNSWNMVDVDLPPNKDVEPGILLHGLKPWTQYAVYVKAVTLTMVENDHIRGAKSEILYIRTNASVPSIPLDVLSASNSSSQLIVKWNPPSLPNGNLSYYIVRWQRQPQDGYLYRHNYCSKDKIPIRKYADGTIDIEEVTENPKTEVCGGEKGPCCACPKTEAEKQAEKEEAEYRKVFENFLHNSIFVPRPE

CC[C@H](C)[C@H](NC(=O)[C@H](CCC(N)=O)NC(=O)[C@H](C)NC(=O)[C@H](Cc1c[nH]c2ccccc12)NC(=O)[C@H](CCC(=O)O)NC(=O)[C@H](CCC(=O)O)NC(=O)[C@H](CCC(=O)O)NC(=O)[C@H](CC(C)C)NC(=O)[C@H](CO)NC(C)=O)C(=O)N[C@@H](CCC(=O)O)C(=O)N[C@H]1CSSC[C@@H](C(=O)N2CCC[C@H]2C(=O)N[C@@H](CO)C(=O)N[C@@H](CCC(=O)O)C(=O)N[C@@H](CO)C(=O)N[C@@H](Cc2ccccc2)C(=O)N[C@@H](Cc2ccc(O)cc2)C(=O)N[C@@H](CC(=O)O)C(=O)N[C@@H](Cc2c[nH]c3ccccc23)C(=O)N[C@@H](Cc2ccccc2)C(=O)N[C@@H](CCC(=O)O)C(=O)N[C@@H](CCCNC(=N)N)C(=O)N[C@@H](CCC(N)=O)C(=O)N[C@@H](CC(C)C)C(N)=O)NC(=O)CNC(=O)[C@H](CCCNC(=N)N)NC(=O)CNC(=O)[C@H](Cc2ccc(O)cc2)NC(=O)[C@H](C(C)C)NC(=O)[C@H](CCC(=O)O)NC1=O [S597] (Ac-SLEEEWAQIECEVYGRGCPSESFYDWFERQL-NH2; disulfide 11-18)
IR activation (pY IR) (IR K484E/L552A): could not be activated efficiently
IR activation (pY IR) (IR R14W): fully activated
IR activation (pY IR) (IR D496K): fully activated
IR activation (pY IR) (IR R345A): fully activated
pAKT (IR signaling): increased
pERK (IR signaling): increased
pY IR (IR signaling): increased
blood glucose levels in ITT (Insulin tolerance test; FIGS. 10A, 8F, 8G): lowered
blood glucose in insulin tolerance assays (Insulin tolerance test; FIGS. 12B, 12C): lowered blood glucose in mice as effectively as insulin
binding to IGF1R (full-length IGF1R): do not bind
body weight gain [1]: gained less than control mice
weight gain and fat mass ([1]; FIG. 11, preliminary data): reduces weight gain and fat mass relative to insulin
IR signaling (T47D): failed to activate
IR signaling (CAL33): failed to activate
activation of IGF1R [2]: does not activate
